Reference: patent US11179344B2, “Nanoparticle-based liver-targeting therapy” (Midatech Limited, priority 2017, dated 2021)

Legend:
[1] = system: orthotopic Hep3B-Luc hepatocellular cancer xenograft; test: Anti-tumour efficacy, orthotopic HEP3B xenograft model (bioluminescence); type: in vivo, BALB/c nude mice; conditions: for T/C (%) / Bioluminescence: day 21; for Bioluminescence: Mean
Protocol: The in vivo anti-tumour efficacy of MTC-100038 in an orthotopic hepatocellular cancer xenograft model in BALB/c nude mice was evaluated. Briefly, female BALB/c nude mice (18-23 g, n=10/group), were implanted with approximately 3×10^6 Hep3B-Luc cells mixed with BD Matrigel in 20 μL (PBS:Matrigel=1:1). Animals were selected and randomized (based on their bioluminescence density) on day 7 after tumour implantation to 6 groups using randomized block design based upon their bioluminescence.
The tumour bioluminescence was used for the calculation of T/C value (in percent), where T and C are the mean bioluminescence of the treated and control groups, respectively, on a given day. Statistical analysis of difference in bioluminescence among the groups and the analysis of drug interaction were conducted on the data obtained at the best therapeutic time point after the final dose (the 21st day after the start of treatment).
A one-way ANOVA was performed to compare bioluminescence among groups, and when a significant F-statistics (a ratio of treatment variance to the error variance) was obtained, comparisons between groups were carried out with Games-Howell test with p<0.05 statistically significant.

[2] = system: subcutaneous BEL7404 hepatocellular cancer xenograft; test: Anti-tumour efficacy, subcutaneous BEL7404 xenograft model; type: in vivo, NOD/SCID mice; conditions: for T/C / Tumour size: day 13; for Tumour size: Mean ± SEM
Protocol: The in vivo anti-tumour efficacy of MTC-100038 in a subcutaneous BEL7404 hepatocellular cancer xenograft model in NOD/SCID mice was evaluated. Briefly NOD/SCID mice (18-22 g, n=10 per group) were implanted subcutaneously with BEL7404 tumour cells (3×10^6) in 0.1 ml of PBS for tumour development. Group/dosing assignment commenced when tumours reached a pre-determined volume of ˜200 mm^3 subcutaneous tumours.
Tumour size was measured twice weekly, and the volume was expressed in mm^3. The tumour size was then used for calculations of T/C values.

[3] = Tolerability (body weight change), Hep3B orthotopic xenograft model; type: in vivo, BALB/c nude mice; conditions: daily oral administration for 21 days
Protocol: The animals in this case were a mouse HCC model with a Hep3B orthotopic xenograft. MTC-100038, DM1, or vehicle were administered I.V. to BALB/c nude mice in 2×5 day cycles (shaded), whilst Sorafenib was administered by daily oral administration for 21 days (dashed line) at a dose of 60 mg/kg, which was the highest tolerated dose in this model. Percentage body weight change was calculated based on animal weight on the first day of dosing. Data points represent percent group mean change in body weight±SEM. Treatment groups were: Vehicle (black circles), Sorafenib 60 mg/kg (squares), free DM1 0.150 mg/kg (triangles), MTC-100038 0.225 mg/kg (green circles), MTC-100038 0.338 mg/kg (diamonds) and MTC-100038 0.450 mg/kg (inverted triangles).

[4] = system: human hepatocellular carcinoma cell line HepG2; test: MTT cell viability assay, Pt / doxorubicin loaded nanoparticles vs free drug; conditions: concentration based on drug amount, FIG. 7: 72 h after treatment
Protocol: The human hepatocellular carcinoma cell line HepG2 was used in the assay.
HepG2 cells were grown in a T-75 flask. For the transfer of the cell the medium was removed from the flask and the cells were trypsinated for 5 minutes. The cells were collected in a Falcon tube and diluted with complete cell medium. The cell counting was conducted in a Neubauer chamber. A cell solution was prepared to seed 4000 cells per well (200 μL per well). The microtiter plate was incubated for 24 h at 37° C.
For each NP and drug, formulations in cell medium were prepared. The compounds were tested in different concentrations (0.01, 0.05, 0.2, 1, 5, 25 and 125 μM based on drug amount). For the treatment, the cell medium was removed from all wells and exchanged for drug formulations. 200 μl of treatments per triplicate was added to each well. The microtiter plates were incubated for 24 h, 48 h and 72 h at 37° C.
1.5 mL MTT solution (8.0 mg in 1.6 mL DMSO) was diluted with complete cell medium (phenol-red free). The treatment cell medium was removed from the microtiter plate, the wells were washed with 100 μL PBS and 100 μL of the MTT reactive solution was added to each well. After one hour incubation at 37° C. the MTT solution was removed and 100 μL DMSO was added to dissolve the formazan dye. Absorbance was measured at 570 nm.
Data were analysed using OriginPro8. The normalized data were plotted and the curve was fitted using a non-linear regression curve fit (sigmoidal dose-response curve with variable slope). The Absolute IC50 values were obtained by interpolation.

HCC cells = test: In vitro targeting of GNPs to HCC cells (counts per field); type: cell-based; conditions: relative to base GNP lacking the peptide
Description: (SEQ ID NO: 1), via its N-terminus (approx. 4 peptide molecules per nanoparticle).
Several base/peptide targeted GNPs were screened in vitro. GNPs having a mixed corona comprising galactose-C2-SH (Gal-C2) ligands and HSPEG8COOH were synthesised according to methodology analogous to that described above in Examples 1 and 2, with however galactose-C2-SH replacing glucose-C2-SH and HSPEG8COOH (also abbreviated SH-EG8-COOH or SH—(OCH2CH2)8—COOH) replacing the amino linker NH2-EG6-SH.
The glypican-3 peptide described in U.S. Pat. No. 8,388,937B2 (the contents of which are expressly incorporated herein by reference)—see SEQ ID NO: 1 thereof, which has the amino acid sequence: […] (SEQ ID NO: 1) was linked to the terminal COOH group of a proportion of the HSPEG8COOH ligands via the N-terminus of said peptide. In a “high loading” GNP construct (see row 1 in the table below), approximately 4 peptides were linked per nanoparticle core. The “high loading” Au@Gal-C2:HSPEG8COOH:HSPEG8CONH[…] The “low loading” Au@Gal-C2:HSPEG8COOH:HSPEG8CONH[…]

BEL7404 = test: In vitro cytotoxicity, BEL7404; type: cell-based
Hep3B cells = test: In vitro cytotoxicity, Hep3B; type: cell-based, human
Description: A lower bar height indicates higher cytotoxic potency.
(§1) The cytotoxicity of gold nanoparticle constructs GalC2-PEG8COOH-GNP (parent, non-functionalised gold nanoparticle (MTC-100011)), and MTC-100038 were compared to free DM1 drug in the HCC cell lines HEPG2 and HEP3B.

[5] = system: subcutaneous Hep3B hepatocellular cancer xenograft; test: Anti-tumour efficacy, subcutaneous HEP3B xenograft model; type: in vivo, NOD/SCID mice; conditions: 0.1125 mg/kg i.v. QD×5, day 13
Protocol: The in vivo anti-tumour efficacy of MTC-100038 in a subcutaneous Hep3B hepatocellular cancer xenograft model in NOD/SCID mice was evaluated. Briefly NOD/SCID mice (18-22 g, n=10 per group) were implanted subcutaneously with HEP 3B hepatocellular cells (3×10^6) in 0.1 mL PBS for tumour development. Group/dosing assignment commenced when tumours reached a pre-determined volume of ˜200 mm^3 subcutaneous tumours (n=10 per group). Tumour size was measured twice weekly, and the volume was expressed in mm^3. The tumour size was then used for calculations of T/C values. The T/C value (in percent) is an indication of anti-tumour effectiveness (optimally, a test article is considered to have anti-tumour activity when T/C is 50% or less); T and C are the mean volumes of the treated and control groups, respectively, on a given day.

[6] = Pharmacokinetics and biodistribution of DM1, subcutaneous Hep3B xenograft model; type: in vivo, NOD/SCID mouse; conditions: no further decline at 48 hours, dosed article not stated
Protocol: DM1 tumour concentration (mean±SEM) is shown for MTC-100038-treated (equivalent DM1 dose 0.06 mg/kg) animals (left-hand bars) and free DM1-treated animals (also 0.06 mg/kg dose) (right-hand bars). Time points are 2 hours (solid fill), 24 hours (horizontal lines) and 48 hours (checked pattern).
The in vivo pharmacokinetics and biodistribution of DM1 was studied in the subcutaneous Hep3B human hepatocellular cancer xenograft model (Table 1). The concentration of gold and DM1 in liver and kidney samples was evaluated 2, 24 and 48 hours after the last drug administration.

[7] = system: HCC cell lines HEPG2 and HEP3B; test: Cytotoxicity of gold nanoparticle constructs vs free DM1 (text values); type: cell-based, human; conditions: line for the value not stated
Description: as §1

[8] = Tolerability (body weight change), mouse model with human HCC xenograft; type: in vivo; conditions: I.V., five consecutive days
Protocol: The animals in this case were a mouse model with a human HCC xenograft. Animals dosed intravenously (I.V.) for five consecutive days (shaded area left of dotted vertical line) at either a low dose of 0.15 mg/kg of DM1 alone (inverted triangles) or high dose of 0.45 mg/kg DM1 alone (diamonds) or MTC-100038 at equivalent DM1 doses low (circles) and high (squares). Percentage body weight change was calculated based on animal weight on the first day of dosing. Data points represent percent group mean change in body weight±SEM. Body weight change is positive in the MTC-100038 nanoparticle-treated animals, but negative (low dose) or fatal (high dose) in the free DM1-treated animals.

[9] = 0.15 mg/kg i.v. QD×5 (D0-4) + QD×5 (D8-12)

For `CNC(=O)c1cc(Oc2ccc(NC(=O)Nc3ccc(Cl)c(C(F)(F)F)c3)cc2)ccn1` [Sorafenib], which “anti-tumour activity compared with vehicle group” value ([1]; 60 mg/kg) is on record?
Its value is “significant anti-tumour activity”.

What about the “T/C (%)” value ([1]; 60 mg/kg p.o. QD×21) of the same molecule?
Its value is 22.3%.

What about the Bioluminescence ([1]; 60 mg/kg p.o. QD×21) of the same molecule?
Its Bioluminescence is 3.24E+09 photons/s.

What about the Bioluminescence ([1]; 60 mg/kg p.o. QD×21, listed as sorafenib) of the same molecule?
The Bioluminescence was 3.24×10^9 photons/s.

What about the “anti-tumour activity compared to vehicle” value ([2]; 60 mg/kg over 21 days) of the same molecule?
Its value is “significant tumour growth inhibition”.

What about the T/C ([2]; 60 mg/kg p.o. QD×21) of the same molecule?
The T/C was 41.9%.

What about the Tumour size ([2]; 60 mg/kg p.o. QD×21) of the same molecule?
The Tumour size was 984 ± 64 mm^3.

And the highest tolerated dose [3]?
Its highest tolerated dose is 60 mg/kg.

What does the source list for platinum-(IV)-succinate?
IC50 [4]: 38.6 µM; IC50 ([4]; listed as Pt(IV)-succinate): 38.6 µM

With `COc1cccc2c1C(=O)c1c(O)c3c(c(O)c1C2=O)C[C@@](O)(C(=O)CO)C[C@@H]3O[C@H]1C[C@H](N)[C@H](O)[C@H](C)O1` [Doxorubicin, doxorubicin] as the molecule, how does the IC50 ([4]; Homo sapiens) read?
The IC50 was 0.06 µM.

For GNP-GalC2(50)-AL(50)-(Ac)YFLTTRQ, which “Fold-targeting (over base particle)” value (HCC cells) is on record?
Its value is 5.0 fold.

And the “Fold-targeting (over base particle)” value (HCC cells; listed as Au@GalC2:AL:AL-(Ac)-YFLTTRQ)?
The value was “approximately 5 fold”.

Which “anti-tumour activity compared with vehicle group” value ([1]; 0.15 mg/kg) does the source give for `COc1cc2cc(c1Cl)N(C)C(=O)C[C@H](OC(=O)[C@H](C)N(C)C(=O)CCS)[C@]1(C)O[C@H]1[C@H](C)[C@@H]1C[C@@](O)(NC(=O)O1)[C@H](OC)/C=C/C=C(\C)C2` [DM1, maytansinoid DM1] here?
The value was “no anti-tumour activity”.

And the “T/C (%)” value [1, 9]?
The value was 83.4%.

What about the Bioluminescence [1, 9] of the same molecule?
Its Bioluminescence is 1.21E+10 photons/s.

And the “anti-tumour activity compared to vehicle” value ([2]; 0.15 mg/kg)?
The value was “no anti-tumour activity”.

What about the T/C [2, 9] of the same molecule?
Its T/C is 113.2%.

What about the Tumour size [2, 9] of the same molecule?
The Tumour size was 2656 ± 180 mm^3.

What about the IC50 (BEL7404) of the same molecule?
Its IC50 is 0.009 µM.

What about the IC50 (Hep3B cells) of the same molecule?
Its IC50 is 0.011 µM.

What about the T/C [5] of the same molecule?
The T/C was 78.9%.

And the Tumour size ([5]; Mean ± SEM)?
The Tumour size was 1217 ± 254 mm^3.

What about the “decline of DM1 concentration in the tumour between 2 and 24 hours” value [6] of the same molecule?
Its value is “about 40%”.

And the IC50 [7]?
Its IC50 is 0.00415 µM.

And the “body weight change, low dose” value ([8]; 0.15 mg/kg DM1 or equivalent DM1 dose)?
Its value is “negative”.

And the “body weight change, high dose” value ([8]; 0.45 mg/kg DM1 or equivalent DM1 dose)?
The value was “fatal”.
